Results on ten molecules are retold here after patent US9126957B2, “Selective glycosidase inhibitors and uses thereof” (MERCK SHARP & DOHME CORP., priority 2011, dated 2015).

This experiment deals with human O-GlcNAcase (Homo sapiens (Human), UniProt O60502). The experiment in a line: Fluorescence-based hOGA assay for determination of KI values for inhibition of O-GlcNAcase activity. Format: biochemical. The conditions noted are these: purified human O-GlcNAcase, 4-Methylumbelliferyl N-acetyl-β-D-glucosaminide substrate, pH 7.0, Cheng-Prusoff. On the procedure:
Assay for determination of KI values for inhibition of O-GlcNAcase activity Experimental procedure for kinetic analyses
Enzymatic reactions are carried out in a reaction containing 50 mM NaH2PO4, 100 mM NaCl and 0.1% BSA (pH 7.0) using 2 mM 4-Methylumbelliferyl N-acetyl-β-D-glucosaminide dihydrate (Sigma M2133) dissolved in ddH2O, as a substrate. The amount of purified human O-GlcNAcase enzyme used in the reaction is 0.7 nM. Test compound of varying concentrations is added to the enzyme prior to initiation of the reaction. The reaction is performed at room temperature in a 96-well plate and is initiated with the addition of substrate. The production of fluorescent product is measured every 60 sec for 45 min with a Tecan Infinite M200 plate-reader with excitation at 355 nm and emission detected at […], with 4-Methylumbelliferone (Sigma M1381) used to produce a standard curve. The slope of product production is determined for each concentration of compound tested and plotted, using standard curve fitting algorithms for sigmoidal dose response curves. The values for a four parameter logistic curve fit of the data are determined.
KI values are determined using the Cheng-Prusoff equation; the Km of O-GlcNacase for substrate is 0.2 mM.

Chain of human O-GlcNAcase (O60502 whole entry): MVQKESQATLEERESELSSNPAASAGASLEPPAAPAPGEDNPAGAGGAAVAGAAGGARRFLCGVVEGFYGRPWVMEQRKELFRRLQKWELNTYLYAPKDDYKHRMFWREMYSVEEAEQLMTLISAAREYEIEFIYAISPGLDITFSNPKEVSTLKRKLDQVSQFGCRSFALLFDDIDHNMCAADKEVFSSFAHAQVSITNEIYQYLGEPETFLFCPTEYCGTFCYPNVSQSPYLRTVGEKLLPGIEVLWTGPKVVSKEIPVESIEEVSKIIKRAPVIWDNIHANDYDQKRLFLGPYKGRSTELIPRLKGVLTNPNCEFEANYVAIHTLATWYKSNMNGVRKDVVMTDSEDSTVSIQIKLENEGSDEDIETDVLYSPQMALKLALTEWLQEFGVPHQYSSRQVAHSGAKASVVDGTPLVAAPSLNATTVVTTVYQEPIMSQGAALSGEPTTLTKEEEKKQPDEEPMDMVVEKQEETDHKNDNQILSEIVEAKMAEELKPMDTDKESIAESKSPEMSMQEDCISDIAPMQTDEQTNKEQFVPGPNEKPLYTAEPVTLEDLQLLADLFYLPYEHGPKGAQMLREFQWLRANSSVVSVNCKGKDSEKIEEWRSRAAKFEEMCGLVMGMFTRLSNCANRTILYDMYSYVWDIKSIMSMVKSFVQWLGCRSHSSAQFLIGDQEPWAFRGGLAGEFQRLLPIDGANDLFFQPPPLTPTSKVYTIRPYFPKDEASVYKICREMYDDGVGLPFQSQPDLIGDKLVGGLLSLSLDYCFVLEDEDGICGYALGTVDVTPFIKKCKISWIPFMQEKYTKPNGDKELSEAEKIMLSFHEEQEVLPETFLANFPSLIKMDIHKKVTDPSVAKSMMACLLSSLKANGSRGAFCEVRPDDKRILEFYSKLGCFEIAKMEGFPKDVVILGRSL

As for `C[C@@H](O)[C@@H]1C[C@H]2OC(N(C)C)=N[C@H]2[C@H](O)[C@H]1O` (single isomer, unassigned) [Example 4], the affinity, expressed as Ki, was 437 nM.

The molecule `C[C@@H](O)[C@H]1C[C@@H]2OC(N(C)C)=N[C@@H]2[C@@H](O)[C@@H]1O` [Example 1A, (3aR,4R,5R,6R,7aS)-2-(Dimethylamino)-6-((R)-1-hydroxyethyl)-3a,4,5,6,7,7a-hexahydrobenzo[d]oxazole-4,5-diol] displayed a Ki of 4.5 nM.

On to `C[C@H](O)[C@H]1C[C@@H]2OC(N(C)C)=N[C@@H]2[C@@H](O)[C@@H]1O` [Example 2, (3aR,4R,5R,6R,7aS)-2-(Dimethylamino)-6-((S)-1-hydroxyethyl)-3a,4,5,6,7,7a-hexahydro-benzo[d]oxazole-4,5-diol], for which the Ki turned out to be 0.26 nM. This Ki is about 17-fold lower than that of the molecule before.

In turn, `CN(C)C1=N[C@@H]2[C@@H](O)[C@H](O)[C@@H](C(C)(C)O)C[C@@H]2O1` [Example 3, (3aR,4R,5R,6S,7aS)-2-(Dimethylamino)-6-(2-hydroxypropan-2-yl)-3a,4,5,6,7,7a-hexahydro-benzo[d]oxazole-4,5-diol] returned a Ki of 54 nM.

For the molecule `CCCNC1=N[C@@H]2[C@@H](O)[C@H](O)[C@@H]([C@H](C)O)C[C@@H]2O1` [Example 5, (3aR,4R,5R,6R,7aS)-6-((S)-1-hydroxyethyl)-2-(propylamino)-3a,4,5,6,7,7a-hexahydrobenzo[d] oxazole-4,5-diol], the affinity corresponds to a Ki of 7.1 nM.

In turn, `CNC1=N[C@@H]2[C@@H](O)[C@H](O)[C@@H]([C@H](C)O)C[C@@H]2O1` [Example 6, (3aR,4R,5R,6R,7aS)-6-((S)-1-hydroxyethyl)-2-(methylamino)-3a,4,5,6,7,7a-hexahydrobenzo[d] oxazole-4,5-diol] returned a Ki of 0.26 nM.

`CCNC1=N[C@@H]2[C@@H](O)[C@H](O)[C@@H](C(C)(C)O)C[C@@H]2O1` [Example 7, (3aR,4R,5R, 6S,7aS)-2-(ethylamino)-6-(2-hydroxy-propan-2-yl)-3a,4,5,6,7,7a-hexahydro-benzo[d] oxazole-4,5-diol] displayed a Ki of 93 nM.

Molecule `CCCNC1=N[C@@H]2[C@@H](O)[C@H](O)[C@@H](C(C)(C)O)C[C@@H]2O1` [Example 8, (3aR,4R,5R, 6S,7aS)-6-(2-hydroxy-propan-2-yl)-2-(propylamino)-3a,4,5,6,7,7a-hexahydro-benzo[d] oxazole-4,5-diol] displayed an inhibitory constant (Ki) of 1670 nM.

For the molecule `C[C@@H](O)[C@H]1C[C@@H]2SC(N(C)C)=N[C@@H]2[C@@H](O)[C@@H]1O` [Example 9], the inhibition constant Ki worked out at 14 nM.

Take `C[C@H](O)[C@H]1C[C@@H]2SC(N(C)C)=N[C@@H]2[C@@H](O)[C@@H]1O` [Example 10, (3aR,4R,5R,6R,7aS)-2-(dimethylamino)-6-((S)-1-hydroxyethyl)-3a,4,5,6,7,7a-hexahydrobenzo[d]thiazole-4,5-diol]: the Ki is 0.14 nM. Compared with the last molecule, the Ki is about 100-fold lower.

Broadly, the Ki is a measure of affinity in units of concentration, obtained from inhibition or displacement.
